Results: patent US20250295600A1, “EXTRACELLULAR VESICLES DERIVED FROM MILK AND PROCESS FOR ISOLATING THE SAME” (EVOBIOTIX SA, priority 2021, published 2025)

Test system: Candida albicans SC5314
Test: Susceptibility of Candida albicans, broth microdilution method
Format: cell-based
Settings: 24 hours, replicate 1
Description: Susceptibility of Candida albicans SC5314 to milk EVs and milk EVs loaded with Amphotericin B (AmpB) was performed by the broth microdilution method, using RPMI-1640 medium and MOPS buffer in a concentration range from 200 nM and 0.39 nM for AmpB loaded EVs and equal particles/mL of unloaded EVs. AmpB alone was also tested at concentrations from 8 µM to 15.12 nM.
The broth micro dilution test is performed using sterile round bottomed 96 well microtiter plates. 50 μL of 1×PBS at pH 7.4 is added to Rows 1 to Row 7, except for Column 1 of Row 3 to Row 7. 100 μL of EVs (BMEV, BMEV-AmpB, GMEV and GMEV-AmpB) at 2× desired concentrations is added to Rows 4 to Row 7 of Column 1. 100 μL of AmpB at 2× desired concentration (i.e. 16 μM) is added to Row 3 of Column 1. 2-fold dilutions were performed by transferring 50 μL from Column 1 to Column 10 of Rows 3 to 7, and homogenised to ensure proper dilution of the compound by half. Row 1 was used as a blank for spectrophotometric readings and Row 2 is used as a growth control. After the plates are prepared, 2× inoculum concentration are prepared with a total cell concentration of 1e+3 to 5e+3 CFU/mL prepared in RPMI 1640 media (with glutamine, without bicarbonate, and with phenol red as a pH indicator) in MOPS according to CLSI media preparation guidelines. Each well of the microtiter plate was inoculated with 50 μL of the 2× inoculum to yield a final cell concentration of 0.5e+3 to 2.5e+3 CFU/mL in the wells. After inoculation, the plates are incubated at 35° C. for 24 hours. Post-incubation, the plates are read at 600 nm using the Thermo Scientific Multiskan Go, and data was recorded. Agitation prior to reading the plate will help with accurate readings.
10.4 g powdered RPMI 1640 medium (with glutamine and phenol red, without bicarbonate); 34.53 g MOPS (3-[N-morpholino] propanesulfonic acid) buffer.
Dissolve powdered medium in 900 mL distilled H2O. Add MOPS (final concentration of 0.165 mol/L) and stir until dissolved. While stirring, adjust the pH to 7.0 at 25° C. using 1 mol/L sodium hydroxide.
Add additional water to bring medium to a final volume of 1 L. Filter sterilize and store at 4° C. until use.
The steps for preparation of inoculum are as follows: • I. Candida albicans SC5314 was subcultured from sterile vials onto Sabouraud dextrose agar or Potato Dextrose agar and passaged to ensure purity and viability. The incubation temperature throughout was 35° C. • II. The inoculum was prepared by picking five colonies of ca. 1 mm in diameter from 24-hour old culture. The colonies were suspended in 1 mL of sterile 1×PBS at pH 7.4. A 10-fold dilution was prepared in PBS. 10 μL of the diluted inoculum with equal volume of Trypan Blue was mixed and counted using a haemocytometer. • III. The suspension should be vortexed for 15 seconds and the cell density adjusted by adding sufficient sterile 1×RPMI-1640 to yield a cell concentration of 1e+3 to 5e+3 CFU/mL.

C[C@@H]1[C@H](O)[C@@H](C)/C=C/C=C/C=C/C=C/C=C/C=C/C=C/[C@H](O[C@@H]2O[C@H](C)[C@@H](O)[C@H](N)[C@@H]2O)C[C@@H]2O[C@](O)(C[C@@H](O)C[C@@H](O)[C@H](O)CC[C@@H](O)C[C@@H](O)CC(=O)O[C@H]1C)C[C@H](O)[C@H]2C(=O)O [AmpB, Amphotericin B]
Abs (read at 600 nm) (AmpB concentration 15.12 nM): 0.13 | Abs (read at 600 nm) (AmpB concentration 31.25 nM): 0.15 | Abs (read at 600 nm) (AmpB concentration 62.5 nM): 0.13 | Abs (read at 600 nm) (AmpB concentration 125 nM): 0.15 | Abs (read at 600 nm) (AmpB concentration 250 nM): 0.13 | Abs (read at 600 nm) (AmpB concentration 500 nM): 0.08 | Abs (read at 600 nm) (AmpB concentration 1 μM): 0.08 | Abs (read at 600 nm) (AmpB concentration 2 μM): 0.00 | Abs (read at 600 nm) (AmpB concentration 4 μM): 0.00 | Abs (read at 600 nm) (AmpB concentration 8 μM): 0.00
